Values after ≈ are worked out from the molar mass of the structure shown. Like-named read-outs stand apart in the source and are kept apart here.
Experiments:
Staphylococcus aureus [1] = experiment: Mode MIC of antibiotic and PA 1,1-Dioxide alone and in combination; type: cell-based; settings: for MIC: Staphylococcus aureus, 18 h, read-out: Mode MIC alone; for Mode MIC's of Cefazolin and PA 1,1-Dioxide in Combination: Cefazolin + PA 1,1-Dioxide in combination
Text: (§1) As indicated hereinbefore, the compounds of formula I, wherein R^1 is hydrogen or an ester-forming residue readily hydrolyzable in vivo, are antibacterial agents of medium potency. […] The procedure which is followed is the one recommended by the International Collaborative Study on Antibiotic Sensitivity Testing (Ericcson and Sherris, Acta. Pathologica et Microbiologia Scandinav, Supp. 217, Section B: 64-68 [1971]), and employs brain heart infusion (BHI) agar and the inocula replicating device. Overnight growth tubes are diluted 100 fold for use as the standard inoculum (20,000-10,000 cells in approximately 0.002 ml. are placed on the agar surface; 20 ml. of BHI agar/dish). Twelve 2 fold dilutions of the test compound are employed, with initial concentration of the test drug being 200 mcg./ml. Single colonies are disregarded when reading plates after 18 hrs. at 37° C. The susceptibility (MIC) of the test organism is accepted as the lowest concentration of compound capable of producing complete inhibition of growth as judged by the naked eye.
(§2) The manner in which the said compounds of the formula I increase the effectiveness of a β-lactam antibiotic can be appreciated by reference to experiments in which the MIC of a given antibiotic alone, and a compound of the formula I wherein R^1 is hydrogen, alone, are measured. These MIC's are then compared with the MIC values obtained with a combination of the given antibiotic and the compound of the formula I wherein R^1 is hydrogen. […] The MIC values of combinations are measured using the method described by Barry and Sabath in "Manual of Clinical Microbiology", edited by Lenette, Spaulding and Truant, 2nd Edition, 1974, American Society for Microbiology.
(§3) From Table II, it can be seen that against 19 ampicillin-resistant strains of Staphylococcus aureus, the mode MIC of ampicillin, and of penicillanic acid 1,1-dioxide, is 200 mcg./ml. […] The other entries in Table II show enhancement of the antibacterial effectiveness of ampicillin against 26 ampicillin resistant strains of Haemophilus influenzae, 18 ampicillin resistant strains of Klebsiella pneumoniae, and 15 strains of the anerobe Bacteroides fragilis. Tables III, IV and V show enhancement of the antibacterial potency of benzylpenicillin (penicillin G) carbenicillin (α-carboxybenzylpenicillin) and cefazolin, respectively, against strains of S. aureus, H. influenzae, K. pneumoniae and Bacteroides fragilis.

Klebsiella pneumoniae [2] = experiment: as above; type: cell-based; settings: for MIC: Klebsiella pneumoniae, 18 h, read-out: Mode MIC alone; for Mode MIC's of Cefazolin and PA 1,1-Dioxide in Combination: Cefazolin + PA 1,1-Dioxide in combination
Text: as §1, §2, §3

Bacteroides fragilis = experiment: as above; type: cell-based; settings: for MIC: Bacteroides fragilis, 18 h, read-out: Mode MIC alone; for Mode MIC's of Cefazolin and PA 1,1-Dioxide in Combination: Cefazolin + PA 1,1-Dioxide in combination
Text: as §1, §2, §3

Haemophilus influenzae = experiment: as above; type: cell-based; settings: for MIC: Haemophilus influenzae, 18 h, alone; for Mode MIC's of Cefazolin and PA 1,1-Dioxide in Combination: Cefazolin + PA 1,1-Dioxide in combination
Text: as §1, §2, §3

microbial β-lactamases = experiment: Inhibition of microbial β-lactamases; type: biochemical; settings: result in words
Pseudomonas aeruginosa = experiment: In vitro antibacterial activity (MIC), Table I; type: cell-based; settings: BHI agar, 18 hrs. at 37° C.
Text: as §1

Pseudomonas putida = experiment: In vitro antibacterial activity (MIC), Table I; type: cell-based; settings: BHI agar, 18 hrs. at 37° C.
Text: as §1

Pasteurella multocida = experiment: In vitro antibacterial activity (MIC), Table I; type: cell-based; settings: BHI agar, 18 hrs. at 37° C.
Text: as §1

Streptococcus faecalis = experiment: In vitro antibacterial activity (MIC), Table I; type: cell-based; settings: Enterococcus faecalis; BHI agar, 18 hrs. at 37° C.
Text: as §1

Hemophilus influenzae = experiment: In vitro antibacterial activity (MIC), Table I; type: cell-based; settings: Haemophilus influenzae; BHI agar, 18 hrs. at 37° C.
Text: as §1

Salmonella typhimurium = experiment: In vitro antibacterial activity (MIC), Table I; type: cell-based; settings: Salmonella enterica, BHI agar, 18 hrs. at 37° C.
Text: as §1

Streptococcus pyogenes = experiment: In vitro antibacterial activity (MIC), Table I; type: cell-based; settings: BHI agar, 18 hrs. at 37° C.
Text: as §1

Enterobacter aerogenes = experiment: In vitro antibacterial activity (MIC), Table I; type: cell-based; settings: Klebsiella aerogenes; BHI agar, 18 hrs. at 37° C.
Text: as §1

Serratia marcescens = experiment: In vitro antibacterial activity (MIC), Table I; type: cell-based; settings: BHI agar, 18 hrs. at 37° C.
Text: as §1

Citrobacter freundii = experiment: In vitro antibacterial activity (MIC), Table I; type: cell-based; settings: BHI agar, 18 hrs. at 37° C.
Text: as §1

Escherichia coli = experiment: In vitro antibacterial activity (MIC), Table I; type: cell-based; settings: BHI agar, 18 hrs. at 37° C.
Text: as §1

Proteus mirabilis = experiment: In vitro antibacterial activity (MIC), Table I; type: cell-based; settings: BHI agar, 18 hrs. at 37° C.
Text: as §1

Enterobacter clocae = experiment: In vitro antibacterial activity (MIC), Table I; type: cell-based; settings: BHI agar, 18 hrs. at 37° C.
Text: as §1

Providencia = experiment: In vitro antibacterial activity (MIC), Table I; type: cell-based; settings: BHI agar, 18 hrs. at 37° C.
Text: as §1

Staphylococcus aureus [3] = experiment: In vitro antibacterial activity (MIC), Table I; type: cell-based; settings: BHI agar, 18 hrs. at 37° C.
Text: as §1

Staphylococcus epidermis = experiment: In vitro antibacterial activity (MIC), Table I; type: cell-based; settings: BHI agar, 18 hrs. at 37° C.
Text: as §1

Klebsiella pneumoniae [4] = experiment: In vitro antibacterial activity (MIC), Table I; type: cell-based; settings: BHI agar, 18 hrs. at 37° C.
Text: as §1

Proteus morgani = experiment: In vitro antibacterial activity (MIC), Table I; type: cell-based; settings: BHI agar, 18 hrs. at 37° C.
Text: as §1

Neisseria gonorrhoeae = experiment: In vitro antibacterial activity (MIC), Table I; type: cell-based; settings: BHI agar, 18 hrs. at 37° C.
Text: as §1

[5] = tested on: many microorganisms, particularly those which produce a β-lactamase; experiment: Enhancement of antibacterial effectiveness of β-lactam antibiotics (combination MIC); type: cell-based; settings: result in words; combination with β-lactam antibiotic
Experimental: as §2

## Cc1nnc(SCC2=C(C(=O)O)N3C(=O)[C@@H](NC(=O)Cn4cnnn4)[C@H]3SC2)s1 [Cefazolin, reference compound]
Staphylococcus aureus [1]; Table V, 20 strains, alone
  MIC: 0.78 µg/mL
Staphylococcus aureus [1]; Table V, 20 strains
  Mode MIC's of Cefazolin and PA 1,1-Dioxide in Combination: 0.2 µg/mL
Klebsiella pneumoniae [2]; Table V, 3 strains, alone
  MIC: 100 µg/mL
Klebsiella pneumoniae [2]; Table V, 3 strains
  Mode MIC's of Cefazolin and PA 1,1-Dioxide in Combination: 6.25 µg/mL
Bacteroides fragilis; Table V, 15 strains, alone
  MIC: 200 µg/mL
Bacteroides fragilis; Table V, 15 strains
  Mode MIC's of Cefazolin and PA 1,1-Dioxide in Combination: 6.25 µg/mL
Haemophilus influenzae; Table V, 25 strains, read-out: Mode MIC alone
  MIC: 25 µg/mL
Haemophilus influenzae; Table V, 25 strains
  Mode MIC's of Cefazolin and PA 1,1-Dioxide in Combination: 3.12 µg/mL

## CC1(C)[C@H](C(=O)O)N2C(=O)C[C@H]2S1(=O)=O [Penicillanic Acid 1,1-Dioxide]
Microbial β-lactamases
  inhibition of microbial β-lactamases: potent inhibitors of microbial β-lactamases
Pseudomonas aeruginosa
  MIC: 200 µg/mL (≈ 857 µM)
Pseudomonas putida
  MIC: > 200 µg/mL
Pasteurella multocida
  MIC: 50 µg/mL (≈ 214 µM)
Streptococcus faecalis
  MIC: > 200 µg/mL
Hemophilus influenzae
  MIC: > 50 µg/mL
Salmonella typhimurium
  MIC: 50 µg/mL (≈ 214 µM)
Streptococcus pyogenes
  MIC: 100 µg/mL (≈ 429 µM)
Enterobacter aerogenes
  MIC: 25 µg/mL (≈ 107 µM)
Serratia marcescens
  MIC: 100 µg/mL (≈ 429 µM)
Citrobacter freundii
  MIC: 50 µg/mL (≈ 214 µM)
Escherichia coli
  MIC: 50 µg/mL (≈ 214 µM)
Proteus mirabilis
  MIC: 100 µg/mL (≈ 429 µM)
Enterobacter clocae
  MIC: 100 µg/mL (≈ 429 µM)
Providencia
  MIC: 100 µg/mL (≈ 429 µM)
Staphylococcus aureus [3]
  MIC: 100 µg/mL (≈ 429 µM)
Staphylococcus epidermis
  MIC: 200 µg/mL (≈ 857 µM)
Klebsiella pneumoniae [4]
  MIC: 50 µg/mL (≈ 214 µM)
Proteus morgani
  MIC: 100 µg/mL (≈ 429 µM)
Neisseria gonorrhoeae
  MIC: 0.312 µg/mL (≈ 1.34 µM)
[5]
  enhancement of antibacterial effectiveness of β-lactam antibiotics: enhances the effectiveness of ampicillin
Staphylococcus aureus [1]
  MIC: 200 µg/mL
Staphylococcus aureus [1]; Table II, 19 ampicillin-resistant strains, ampicillin + PA 1,1-Dioxide in combination
  Mode MIC's of ampicillin and PA 1,1-Dioxide in combination: 3.12 µg/mL
Staphylococcus aureus [1]; Table III, 20 strains, alone
  Mode MIC alone: 200 µg/mL
Staphylococcus aureus [1]; Table III, 20 strains, penicillin G + PA 1,1-Dioxide in combination
  Mode MIC's of penicillin G and PA 1,1-Dioxide in combination: 6.25 µg/mL
Staphylococcus aureus [1]; Table IV, 20 strains, alone
  Mode MIC alone: 200 µg/mL
Staphylococcus aureus [1]; Table IV, 20 strains, carbenicillin + PA 1,1-Dioxide in combination
  Mode MIC's of carbenicillin and PA 1,1-Dioxide in combination: 6.25 µg/mL
Staphylococcus aureus [1]; Table V, 20 strains
  Mode MIC's of Cefazolin and PA 1,1-Dioxide in Combination: 25 µg/mL
Staphylococcus aureus [1]; Table V, 20 strains, alone
  Mode MIC alone: 200 µg/mL
Klebsiella pneumoniae [2]
  MIC: 50 µg/mL
Klebsiella pneumoniae [2]; Table II, 18 ampicillin resistant strains, ampicillin + PA 1,1-Dioxide in combination
  Mode MIC's of ampicillin and PA 1,1-Dioxide in combination: 6.25 µg/mL
Klebsiella pneumoniae [2]; Table III, 24 strains, alone
  Mode MIC alone: 50 µg/mL
Klebsiella pneumoniae [2]; Table III, 24 strains, penicillin G + PA 1,1-Dioxide in combination
  Mode MIC's of penicillin G and PA 1,1-Dioxide in combination: 12.5 µg/mL
Klebsiella pneumoniae [2]; Table IV, 16 strains, alone
  Mode MIC alone: 50 µg/mL
Klebsiella pneumoniae [2]; Table IV, 16 strains, carbenicillin + PA 1,1-Dioxide in combination
  Mode MIC's of carbenicillin and PA 1,1-Dioxide in combination: 6.25 µg/mL
Klebsiella pneumoniae [2]; Table V, 3 strains
  Mode MIC's of Cefazolin and PA 1,1-Dioxide in Combination: 25 µg/mL
Klebsiella pneumoniae [2]; Table V, 3 strains, alone
  Mode MIC alone: 50 µg/mL
Bacteroides fragilis
  MIC: 50 µg/mL
Bacteroides fragilis; Table II, 15 strains, ampicillin + PA 1,1-Dioxide in combination
  Mode MIC's of ampicillin and PA 1,1-Dioxide in combination: 0.78 µg/mL
Bacteroides fragilis; Table III, 15 strains, alone
  Mode MIC alone: 50 µg/mL
Bacteroides fragilis; Table III, 15 strains, penicillin G + PA 1,1-Dioxide in combination
  Mode MIC's of penicillin G and PA 1,1-Dioxide in combination: 0.39 µg/mL
Bacteroides fragilis; Table IV, 15 strains, alone
  Mode MIC alone: 50 µg/mL
Bacteroides fragilis; Table IV, 15 strains, carbenicillin + PA 1,1-Dioxide in combination
  Mode MIC's of carbenicillin and PA 1,1-Dioxide in combination: 0.78 µg/mL
Bacteroides fragilis; Table V, 15 strains
  Mode MIC's of Cefazolin and PA 1,1-Dioxide in Combination: 6.25 µg/mL
Bacteroides fragilis; Table V, 15 strains, alone
  Mode MIC alone: 50 µg/mL
Haemophilus influenzae; read-out: Mode MIC alone, Table II, 26 ampicillin resistant strains
  MIC: > 200 µg/mL
Haemophilus influenzae; read-out: Mode MIC alone, Table III, 25 strains
  MIC: 100 µg/mL
Haemophilus influenzae; read-out: Mode MIC alone, Table IV, 25 strains
  MIC: 100 µg/mL
Haemophilus influenzae; read-out: Mode MIC alone, Table V, 25 strains
  MIC: 200 µg/mL
Haemophilus influenzae; Table II, 26 ampicillin resistant strains, ampicillin + PA 1,1-Dioxide in combination
  Mode MIC's of ampicillin and PA 1,1-Dioxide in combination: 3.12 µg/mL
Haemophilus influenzae; Table III, 25 strains, penicillin G + PA 1,1-Dioxide in combination
  Mode MIC's of penicillin G and PA 1,1-Dioxide in combination: 1.56 µg/mL
Haemophilus influenzae; Table IV, 25 strains, carbenicillin + PA 1,1-Dioxide in combination
  Mode MIC's of carbenicillin and PA 1,1-Dioxide in combination: 0.78 µg/mL
Haemophilus influenzae; Table V, 25 strains
  Mode MIC's of Cefazolin and PA 1,1-Dioxide in Combination: 0.2 µg/mL
